Target: human neprilysin (EC 3.4.24.11; NEP) (Homo sapiens (Human), UniProt P08473)
Experiment: In vitro enzyme inhibition assay at human NEP (fluorogenic peptide substrate)
Assay type: biochemical
Conditions: pKi values at human NEP, recombinant human NEP
Experimental: In Vitro Assays for the Quantitation of Inhibitor Potencies at Human and Rat NEP, and Human ACE
The inhibitory activities of compounds at human and rat neprilysin (EC 3.4.24.11; NEP) and human angiotensin converting enzyme (ACE) were determined using in vitro assays as described below.
Recombinant human NEP and recombinant human ACE were obtained commercially (R&D Systems, Minneapolis, Minn., catalog numbers 1182-ZN and 929-ZN, respectively). The fluorogenic peptide substrate Mca-D-Arg-Arg-Leu-Dap-(Dnp)-OH (Medeiros et al. (1997) Braz. J. Med. Biol. Res. 30:1157-62; Anaspec, San Jose, Calif.) and Abz-Phe-Arg-Lys(Dnp)-Pro-OH (Araujo et al. (2000) Biochemistry 39:8519-8525; Bachem, Torrance, Calif.) were used in the NEP and ACE assays respectively.
The assays were performed in 384-well white opaque plates at 37° C. using the fluorogenic peptide substrates at a concentration of 10 μM in Assay Buffer (NEP: 50 mM HEPES, pH 7.5, 100 mM NaCl, 0.01% polyethylene glycol sorbitan monolaurate (Tween-20), 10 μM ZnSO4; ACE: 50 mM HEPES, pH 7.5, 100 mM NaCl, 0.01% Tween-20, 1 μM ZnSO4).
Test compounds were assayed over the range of concentrations from 10 μM to pM. Test compounds were added to the enzymes and incubated for 30 minute at 37° C. prior to initiating the reaction by the addition of substrate. Reactions were terminated after 20 minutes of incubation at 37° C. by the addition of glacial acetic acid to a final concentration of 3.6% (v/v).
Plates were read on a fluorometer with excitation and emission wavelengths set to 320 nm and 405 nm, respectively. Inhibition constants were obtained by nonlinear regression of the data using the equation (GraphPad Software, Inc., San Diego, Calif.): v=v0/[1+(I/K′)] where v is the reaction rate, v0 is the uninhibited reaction rate, I is the inhibitor concentration and K′ is the apparent inhibition constant.
Compounds of the invention were tested in this assay and found to have pKi values at human NEP as follows.

Sequence of human neprilysin (EC 3.4.24.11; NEP) (P08473 52-750): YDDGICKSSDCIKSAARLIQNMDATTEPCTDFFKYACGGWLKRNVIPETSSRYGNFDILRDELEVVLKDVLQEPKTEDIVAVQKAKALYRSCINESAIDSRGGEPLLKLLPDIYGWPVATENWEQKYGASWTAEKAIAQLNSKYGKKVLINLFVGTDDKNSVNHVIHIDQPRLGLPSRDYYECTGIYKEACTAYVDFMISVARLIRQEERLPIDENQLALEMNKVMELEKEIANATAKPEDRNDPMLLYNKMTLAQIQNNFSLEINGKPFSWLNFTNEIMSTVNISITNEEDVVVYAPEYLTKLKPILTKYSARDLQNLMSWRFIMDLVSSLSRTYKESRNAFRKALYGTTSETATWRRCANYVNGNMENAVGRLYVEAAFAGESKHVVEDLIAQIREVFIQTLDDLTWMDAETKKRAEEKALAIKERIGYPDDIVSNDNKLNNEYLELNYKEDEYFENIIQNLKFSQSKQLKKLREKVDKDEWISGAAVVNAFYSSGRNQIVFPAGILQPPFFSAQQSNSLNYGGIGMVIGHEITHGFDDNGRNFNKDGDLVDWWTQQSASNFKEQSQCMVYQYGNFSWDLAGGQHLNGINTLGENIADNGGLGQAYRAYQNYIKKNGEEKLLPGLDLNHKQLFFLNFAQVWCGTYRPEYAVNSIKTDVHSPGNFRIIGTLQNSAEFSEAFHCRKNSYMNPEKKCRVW

Structure (SMILES)	Ki [nM]	pKi
NC(=O)[C@H](O)C[C@@H](Cc1ccc(-c2ccccc2)cc1)NC(=O)c1cnc(O)nc1 [Example 9, 2-Hydroxypyrimidine-5-carboxylic acid ((1R,3R)-1-biphenyl-4-ylmethyl-3-carbamoyl-3-hydroxypropyl)amide]	12.6 to 100	
O=C(N[C@H](Cc1ccc(-c2ccccc2)cc1)CC(O)C(=O)O)c1nc[nH]n1 (stereo partly drawn) [Example 10-6, (R)-5-Biphenyl-4-yl-2-hydroxy-4-[(1H-[1,2,4]triazole-3-carbonyl)amino]pentanoic acid]	12.6 to 100	
CC(=O)OCOn1nnc2ccc(C(=O)N[C@H](Cc3ccc(-c4cc(Cl)ccc4Cl)cc3)C[C@@H](O)C(=O)O)cc21 [Example 19-21, (2R,4R)-4-[(3-Acetoxymethoxy-3H-benzotriazole-5-carbonyl)-amino]-5-(2′,5-dichloro-biphenyl-4-yl)-2-hydroxy-pentanoic acid]	≤ 1	
O=C(N[C@H](Cc1ccc(-c2ccccc2)cc1)C[C@@H](O)C(=O)O)c1cc(-c2ccccc2Cl)no1 [Example 12-6, (2R,4R)-5-Biphenyl-4-yl-4-{[3-(2-chlorophenyl)-isoxazole-5-carbonyl]-amino}-2-hydroxy-pentanoic acid]		≥9.0
O=C(N[C@H](Cc1ccc(-c2ccccc2)cc1)C[C@@H](O)C(=O)O)c1noc(=O)[nH]1 [Example 12-27, (2R,4R)-5-Biphenyl-4-yl-2-hydroxy-4-[(5-oxo-4,5-dihydro-[1,2,4]oxadiazole-3-carbonyl)-amino]-pentanoic acid]		≥9.0
O=C(N[C@H](Cc1ccc(-c2ccccc2)cc1)CC(O)C(=O)O)c1nnc(-c2ccccn2)[nH]1 (stereo partly drawn) [Example 10-10, (R)-5-Biphenyl-4-yl-2-hydroxy-4-[(5-pyridin-2-yl-4H-[1,2,4]triazole-3-carbonyl)amino]pentanoic acid]	1.26 to 10	
Cc1nc(C(=O)N[C@H](Cc2ccc(-c3ccccc3)cc2)CC(O)C(=O)O)nn1-c1ccc(Cl)cc1 (stereo partly drawn) [Example 10-7, (R)-5-Biphenyl-4-yl-4-{[1-(4-chlorophenyl)-5-methyl-1H-[1,2,4]triazole-3-carbonyl]-amino}-2-hydroxypentanoic acid]	12.6 to 100	
O=C(N[C@H](Cc1ccc(-c2ccccc2)cc1)C[C@@H](O)C(=O)O)c1cc(C(=O)N2CCC2)n[nH]1 [Example 4-B, (2R,4R)-4-{[5-(Azetidine-1-carbonyl)-2H-pyrazole-3-carbonyl]amino}-5-biphenyl-4-yl-2-hydroxy-pentanoic acid]		≥9.0
CC(=O)Nc1ncc(C(=O)N[C@H](Cc2ccc(-c3ccccc3)cc2)C[C@@H](O)C(=O)O)s1 [Example 12-24, (2R,4R)-4-[(2-Acetylamino-thiazole-5-carbonyl)-amino]-5-biphenyl-4-yl-2-hydroxy-pentanoic acid]	12.6 to 100	
O=C(N[C@H](Cc1ccc(-c2ccccc2)cc1)CC(O)C(=O)O)c1cnc2[nH]cnc2c1 (stereo partly drawn) [Example 11-9, (R)-5-Biphenyl-4-yl-2-hydroxy-4-[(3H-imidazo[4,5-b]pyridine-6-carbonyl)-amino]-pentanoic acid]	12.6 to 100	
COc1cccc(-c2cc(C(=O)N[C@H](Cc3ccc(-c4ccccc4)cc3)C[C@@H](O)C(=O)O)no2)c1 [Example 12-18, (2R,4R)-5-Biphenyl-4-yl-2-hydroxy-4-{[5-(3-methoxy-phenyl)-isoxazole-3-carbonyl]-amino}-pentanoic acid]	1.26 to 10	
O=C(N[C@H](Cc1ccc(-c2ccccc2)cc1)C[C@@H](O)C(=O)O)c1cc(C(=O)N2CCCC2)n[nH]1 [Example 5-B, (2R,4R)-5-Biphenyl-4-yl-2-hydroxy-4-{[5-(pyrrolidine-1-carbonyl)-2H-pyrazole-3-carbonyl]-amino}pentanoic Acid]		≥9.0

The next lines start with the values.

Ki [nM]	pKi	Structure (SMILES)
12.6 to 100		Nc1cc(C(=O)N[C@H](Cc2ccc(-c3ccccc3)cc2)CC(O)C(=O)O)n[nH]1 (stereo partly drawn) [Example 15-101, (R)-4-[(5-Amino-2H-pyrazole-3-carbonyl)-amino]-5-biphenyl-4-yl-2-hydroxy-pentanoic acid]
1.26 to 10		O=C(N[C@H](Cc1ccc(-c2ccccc2)cc1)C[C@@H](O)C(=O)O)c1cc2n(n1)C[C@H](O)COc1ccccc1-2 [Example 16-4, (2R,4R)-5-Biphenyl-4-yl-2-hydroxy-4-[((S)-8-hydroxy-10-oxa-5,6-diaza-tricyclo[9.4.0.02,6]pentadeca-1(15),2,4,11,13-pentaene-4-carbonyl)-amino]-pentanoic acid]
12.6 to 100		CCCc1cc(C(=O)N[C@H](Cc2ccc(-c3ccccc3)cc2)CC(O)C(=O)O)[nH]n1 (stereo partly drawn) [Example 15-74, (R)-5-Biphenyl-4-yl-2-hydroxy-4-[(5-propyl-2H-pyrazole-3-carbonyl)amino]-pentanoic acid]
	≥9.0	O=C(N[C@H](Cc1ccc(-c2cccc(Cl)c2)cc1)C[C@@H](O)C(=O)O)c1nnc(C(F)(F)F)[nH]1 [Example 18-45, (2R,4R)-5-(3′-Chlorobiphenyl-4-yl)-2-hydroxy-4-[(5-trifluoromethyl-4H-[1,2,4]triazole-3-carbonyl)-amino]-pentanoic acid]
	≥9.0	O=C(N[C@H](Cc1ccc(-c2ccccc2)cc1)C[C@@H](O)C(=O)O)c1cc(-c2cc(Cl)ccc2Cl)[nH]n1 [Example 15-27, (2R,4R)-5-Biphenyl-4-yl-4-{[5-(2,5-dichlorophenyl)-1H-pyrazole-3-carbonyl]-amino}-2-hydroxy-pentanoic acid]
	≥9.0	O=C(N[C@H](Cc1ccc(-c2cccc(Cl)c2)cc1)C[C@@H](O)C(=O)O)c1cc(=O)n(-c2ccccc2)[nH]1 [Example 18-41, (2R,4R)-5-(3′-Chlorobiphenyl-4-yl)-2-hydroxy-4-[(5-oxo-1-phenyl-2,5-dihydro-1H-pyrazole-3-carbonyl)-amino]-pentanoic acid]
	≥9.0	O=C(N[C@H](Cc1ccc(-c2cccc(Cl)c2)cc1)C[C@@H](O)C(=O)O)c1c[nH]nn1 [Example 18-2, (2R,4R)-5-(3′-Chlorobiphenyl-4-yl)-2-hydroxy-4-[(1H-[1,2,3]triazole-4-carbonyl)-amino]-pentanoic acid]
	≥9.0	O=C(N[C@H](Cc1ccc(-c2cccc(Cl)c2)cc1)C[C@@H](O)C(=O)O)c1cc(Cl)no1 [Example 18-9, (2R,4R)-5-(3′-Chloro-biphenyl-4-yl)-4-[(3-chloro-isoxazole-5-carbonyl)-amino]-2-hydroxy-pentanoic acid]
	≥9.0	CNC(=O)c1cc(C(=O)N[C@H](Cc2ccc(-c3ccccc3)cc2)C[C@@H](O)C(=O)O)[nH]n1 [Example 15-60, (2R,4R)-5-Biphenyl-4-yl-2-hydroxy-4-[(5-methylcarbamoyl-2H-pyrazole-3-carbonyl)-amino]pentanoic acid]
1.26 to 10		O=C(N[C@H](Cc1ccc(-c2ccccc2)cc1)CC(O)C(=O)O)c1cc(C(=O)O)n(Cc2cc(F)cc(Cl)c2)n1 (stereo partly drawn) [Example 15-11, 5-((R)-1-Biphenyl-4-ylmethyl-3-carboxy-3-hydroxy-propylcarbamoyl)-2-(3-chloro-5-fluorobenzyl)-2H-pyrazole-3-carboxylic acid]
12.6 to 100		O=C(N[C@H](Cc1ccc(-c2ccccc2)cc1)CC(O)C(=O)O)c1cc[nH]n1 (stereo partly drawn) [Example 15-1, (R)-5-Biphenyl-4-yl-2-hydroxy-4-[(1H-pyrazole-3-carbonyl)amino]pentanoic acid]
12.6 to 100		CCCCC(=O)Nc1cc(C(=O)N[C@H](Cc2ccc(-c3ccccc3)cc2)CC(O)C(=O)O)[nH]n1 (stereo partly drawn) [Example 15-92, (R)-5-Biphenyl-4-yl-2-hydroxy-4-[(5-pentanoylamino-2H-pyrazole-3-carbonyl)-amino]-pentanoic acid]
	≥9.0	O=C(N[C@H](Cc1ccc(-c2ccccc2)cc1)C[C@@H](O)C(=O)O)c1cc(-c2ccccc2)[nH]n1 [Example 15-33, (2R,4R)-5-Biphenyl-4-yl-2-hydroxy-4-[(5-phenyl-1H-pyrazole-3-carbonyl)-amino]-pentanoic acid]
	≥9.0	CC(O)c1cc(C(=O)N[C@H](Cc2ccc(-c3cccc(Cl)c3)cc2)C[C@@H](O)C(=O)O)[nH]n1 (stereo partly drawn) [Example 18-32, (2R,4R)-5-(3′-Chloro-biphenyl-4-yl)-2-hydroxy-4-{[5-(1-hydroxy-ethyl)-2H-pyrazole-3-carbonyl]-amino}-pentanoic acid]
	≥9.0	Cn1nc(C(=O)N[C@H](Cc2ccc(-c3ccccc3)cc2)C[C@@H](O)C(=O)O)cc1C(=O)O [Example 15-5, 5-((1R,3R)-1-Biphenyl-4-ylmethyl-3-carboxy-3-hydroxypropylcarbamoyl)-2-methyl-2H-pyrazole-3-carboxylic acid]
12.6 to 100		O=C(N[C@H](Cc1ccc(-c2ccccc2)cc1)CC(O)C(=O)O)c1cn[nH]c1 (stereo partly drawn) [Example 15-113, (R)-5-Biphenyl-4-yl-2-hydroxy-4-[(1H-pyrazole-4-carbonyl)amino]pentanoic acid]

Reference: patent publication US10759813B2, “Neprilysin inhibitors” (THERAVANCE BIOPHARMA R&D IP, LLC, priority 2010, dated 2020)
